Assay results published in patent EP4725941A1, “ARYLAMIDE DERIVATIVE HAVING ANTITUMOR ACTIVITY” (priority 2020, dated 2021).
Like-named read-outs stand apart in the source and are kept apart here.

Legend:
[1] = test system: NCI-H2122; assay: Cell proliferation-inhibiting activity (ATP in viable cells, CellTiter-Glo), NCI-H2122; type: cell-based, human; details: NCI-H2122, 96 h; human lung cancer cells, 4 days; read-out: NCI-H2122 IC50
[2] = test system: Calu-6; assay: Cell proliferation-inhibiting activity (ATP in viable cells, CellTiter-Glo), Calu-6; type: cell-based, human; details: Calu-6, 96 h; human lung cancer cells, 4 days; read-out: Calu-6 IC50
[3] = molecular target: T1, BRAF (Homo sapiens, UniProt P15056); assay: BRAF-inhibiting activity, time-resolved fluorescence-fluorescence resonance energy transfer assay; type: biochemical
T1 construct: purchased Eurofins Genomics KK; (BRAF); Thermo Fisher Scientific Inc. (MEK1)
Protocol: The BRAF-inhibiting activity of the compounds listed in Table 3 below was evaluated by the time-resolved fluorescence-fluorescence resonance energy transfer assay as described below.

[4] = test system: A549; assay: Cell proliferation-inhibiting activity (ATP in viable cells, CellTiter-Glo), A549; type: cell-based, human; details: A549, 96 h; human lung cancer cells, 4 days; read-out: A549 IC50
[5] = molecular target: T2, MEK1 (Homo sapiens, UniProt Q02750); assay: MEK1-inhibiting activity, fluorescent polarization method (CRAF/MEK1/ERK2 cascade, IMAP); type: biochemical
T2 construct: purchased Thermo Fisher Scientific Inc. (MEK1, CRAF); Carna Biosciences, Inc. (ERK2)

[6] = Human liver microsome stability; type: in vitro ADME; details: human liver microsomes, pH 7.4
[7] = test system: HCT-116; assay: HCT-116 growth-inhibiting activity; type: cell-based; details: Table 1, human cancer cells with RAS mutation
[8] = test system: Colo-205; assay: Colo-205 growth-inhibiting activity; type: cell-based; details: Table 1, human cancer cells with BRAF mutation
[9] = molecular target: T2, MEK1; assay: MEK1-inhibiting activity, fluorescent polarization method (CRAF/MEK1/ERK2 cascade, IMAP); type: biochemical; details: Table 3; read-out: MEK1 IC50
Protocol: The MEK1-inhibiting activity of the compounds listed in Table 3 below were evaluated by the fluorescent polarization method as described below.

T2 sequence (Q02750 whole entry): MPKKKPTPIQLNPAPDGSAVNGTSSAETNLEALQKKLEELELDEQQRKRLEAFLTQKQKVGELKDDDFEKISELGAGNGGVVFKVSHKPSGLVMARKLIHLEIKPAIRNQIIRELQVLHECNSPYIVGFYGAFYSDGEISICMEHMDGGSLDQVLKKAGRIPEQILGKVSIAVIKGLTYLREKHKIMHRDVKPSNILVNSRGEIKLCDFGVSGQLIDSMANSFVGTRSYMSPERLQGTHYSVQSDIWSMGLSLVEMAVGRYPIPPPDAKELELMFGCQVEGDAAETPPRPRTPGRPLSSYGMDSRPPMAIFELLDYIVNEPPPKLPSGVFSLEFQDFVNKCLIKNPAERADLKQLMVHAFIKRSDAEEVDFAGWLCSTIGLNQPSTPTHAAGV
T1 sequence (P15056 417-766 limits assumed): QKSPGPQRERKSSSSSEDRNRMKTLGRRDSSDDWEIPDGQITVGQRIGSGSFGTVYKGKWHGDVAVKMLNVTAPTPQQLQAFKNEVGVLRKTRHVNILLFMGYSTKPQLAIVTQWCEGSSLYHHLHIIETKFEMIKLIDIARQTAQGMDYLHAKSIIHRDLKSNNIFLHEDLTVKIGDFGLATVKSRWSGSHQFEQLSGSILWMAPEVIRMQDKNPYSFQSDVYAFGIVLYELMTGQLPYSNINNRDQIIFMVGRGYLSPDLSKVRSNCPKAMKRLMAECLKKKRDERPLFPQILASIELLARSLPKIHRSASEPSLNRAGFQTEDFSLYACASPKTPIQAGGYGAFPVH

Structure (SMILES): CNS(=O)(=O)Nc1nccc(Cc2cc(C(N)=O)c(Nc3ccc(I)cc3F)cn2)c1F [Compound L-1, 5-(2-Fluoro-4-iodoanilino)-2-[[3-fluoro-2-(methylsulfamoylamino)pyridin-4-yl]methyl]pyridine-4-carboxamide]
- IC50 [1]: 17 nM
- IC50 [2]: 41 nM
- IC50 ([3]; Table 3; read-out: BRAF IC50): 2 nM
- IC50 [4]: 21 nM
- IC50 ([5]; Table 3): 6 nM
- microsomal CLint at 0.99 µM [6]: 10 µL/min/mg

Structure (SMILES): CNS(=O)(=O)Nc1cccc(Cc2c(CC(=O)NOCCO)c3ccc(Oc4ncccn4)cc3oc2=O)c1F [AA-2, 2-[3-[[2-Fluoro-3-(methylsulfamoylamino)phenyl]methyl]-2-oxo-7-pyrimidin-2-yloxychromen-4-yl]-N-(2-hydroxyethoxy)acetamide]
- IC50 ([3]; Table 1; read-out: BRAF IC50): 2200 nM
- IC50 [7]: 45000 nM
- IC50 ([5]; Table 1): > 8000 nM

Structure (SMILES): CNS(=O)(=O)NCC(=O)N(Cc1cc(C(=O)NOCCO)c(Nc2ccc(I)cc2F)c(F)c1F)OC [AA-1, 3,4-Difluoro-2-(2-fluoro-4-iodoanilino)-N-(2-hydroxyethoxy)-5-[[methoxy-[2-(methylsulfamoylamino)acetyl]amino]methyl]benzamide]
- IC50 ([3]; Table 1; read-out: BRAF IC50): 3 nM
- IC50 [7]: 2 nM
- IC50 [8]: 0.4 nM
- IC50 ([5]; Table 1): 21 nM

Structure (SMILES): CNS(=O)(=O)Nc1nccc(Cc2cc(C(N)=O)c(Nc3ccc4sccc4c3F)c(F)c2F)c1F [Compound H-3, 3,4-difluoro-2-[(4-fluoro-1-benzothiophen-5-yl)amino]-5-[[3-fluoro-2-(methylsulfamoylamino)pyridin-4-yl]methyl]benzamide]
- IC50 ([3]; Table 3; read-out: BRAF IC50): 4 nM
- IC50 ([5]; Table 3): 2 nM
- microsomal CLint at 0.99 µM [6]: 149 µL/min/mg

Structure (SMILES): COCCS(=O)(=O)Nc1cccc(Cc2cc(C(N)=O)c(Nc3ccc(I)cc3F)c(F)c2F)c1F [Compound D-5, 3,4-Difluoro-2-(2-fluoro-4-iodoanilino)-5-[[2-fluoro-3-(2-methoxyethylsulfonylamino)phenyl]methyl]benzamide]
- IC50 [1]: 5 nM
- IC50 [2]: 71 nM
- IC50 ([3]; read-out: BRAF IC50; Table 3): 7 nM
- IC50 [4]: 10 nM
- IC50 [9]: 169 nM
- microsomal CLint at 0.99 µM [6]: 28 µL/min/mg

Structure (SMILES): CNS(C)(=O)=Nc1nccc(Cc2cc(C(N)=O)c(Nc3ccc(I)cc3F)c(F)c2F)c1F (stereo not drawn) [Compound A-43, 3,4-Difluoro-2-(2-fluoro-4-iodoanilino)-5-[[3-fluoro-2-[[methyl-(methylamino)-oxo-λ6-sulfanylidene]amino]pyridin-4-yl]methyl]benzamide]
- IC50 [1]: 13 nM
- IC50 ([3]; Table 3; read-out: BRAF IC50): 10 nM
- IC50 [4]: 2 nM
- IC50 ([5]; Table 3): 41 nM
- microsomal CLint at 0.99 µM [6]: 37 µL/min/mg

Structure (SMILES): NS(=O)(=O)Nc1cccc(Cc2cc(C(=O)NC3CC3)c(Nc3ccc(I)cc3F)c(F)c2F)c1F [Compound D-7, N-Cyclopropyl-3,4-difluoro-2-(2-fluoro-4-iodoanilino)-5-[[2-fluoro-3-(sulfamoylamino)phenyl]methyl]benzamide]
- IC50 [1]: 2 nM
- IC50 [2]: 9 nM
- IC50 ([3]; read-out: BRAF IC50; Table 3): 4 nM
- IC50 [4]: 3 nM
- IC50 [9]: 282 nM
- microsomal CLint at 0.99 µM [6]: 11 µL/min/mg

Structure (SMILES): Cn1c(Nc2ccc(I)cc2F)c(C(=O)NC2CC2)cc(Cc2cccc(NS(=O)(=O)NC3CC3)c2F)c1=O [Compound K-5, N-Cyclopropyl-5-[[3-(cyclopropylsulfamoylamino)-2-fluorophenyl]methyl]-2-(2-fluoro-4-iodoanilino)-1-methyl-6-oxopyridine-3-carboxamide]
- IC50 [1]: 23 nM
- IC50 [2]: 110 nM
- IC50 ([3]; read-out: BRAF IC50; Table 3): 9 nM
- IC50 [4]: 25 nM
- IC50 [9]: 139 nM
- microsomal CLint at 0.99 µM [6]: 245 µL/min/mg

Structure (SMILES): COCC1(S(=O)(=O)Nc2cccc(Cc3cc(C(N)=O)c(Nc4ccc(I)cc4F)c(F)c3F)c2F)CC1 [Compound E-19]
- IC50 [1]: 9 nM
- IC50 [2]: 87 nM
- IC50 ([3]; read-out: BRAF IC50; Table 3): 34 nM
- IC50 [4]: 9 nM
- IC50 [9]: 332 nM
- microsomal CLint at 0.99 µM [6]: 115 µL/min/mg

Structure (SMILES): CC(C)CNS(=O)(=O)Nc1nccc(Cc2cc(C(N)=O)c(Nc3ccc(I)cc3F)c(F)c2F)c1F [Compound A-34, 3,4-difluoro-2-(2-fluoro-4-iodoanilino)-5-[[3-fluoro-2-(2-methylpropylsulfamoylamino)pyridin-4-yl]methyl]benzamide]
- IC50 [1]: 12 nM
- IC50 [2]: 79 nM
- IC50 ([3]; read-out: BRAF IC50; Table 3): 3 nM
- IC50 [4]: 27 nM
- IC50 [9]: 81 nM
- microsomal CLint at 0.99 µM [6]: 17 µL/min/mg
